Assay results from publication PMC11207111, “Assessment of the Activity of Nitroisoxazole Derivatives against Trypanosoma cruzi” (Molecules, 2024).

Experiments:
[1] = tested on: trypomastigote of T. cruzi Dm28; assay: Trypanocidal activity (MTT) on trypomastigotes; assay type: cell-based; conditions: Trypanosoma cruzi; for killing at 100 µM: 24 h, n.a = not active, read-out: % T. cruzi Trypomastigote (trypanocidal effect); for IC50: T. cruzi Dm28, 24 h
Procedure: As a preliminary step, a study of nitroisoxazole derivatives on the epimastigote form of T. cruzi was performed. Despite the epimastigote form not being a clinical form present in mammals, its easy handling has allowed screening for the trypanocidal activity of various compounds. It is worth noting that, during the intracellular life cycle of the parasite, a form similar to the epimastigote, which is biochemically and morphologically identical to the form present in the vector, has been described. […] This is consistent with studies by Fonseca-Berzal et al. […] Additionally, compounds with higher activity have aromatic rings as substituents for nitroisoxazoles, confirming what was described Do […] [40]. […] It has also been determined that the presence of an isoxazole is essential for activity, as its aromatic structure contains a weak nitrogen-oxygen bond that, under different reaction conditions, can undergo ring cleavage, increasing activity. The results obtained on epimastigotes cannot be conclusive for determining potential Chagas agents, so conducting studies on the infective, extracellular, non-replicative trypomastigote form of T. cruzi present in humans is essential. […] RPMI 1640 medium) for 24 h. […] The effects of the compounds on trypomastigote and Vero cell viability were evaluated by tetrazolium salt reduction assay (MTT). […] The plates were kept overnight at 37 °C (28 °C for epimastigotes), and the optical density (OD) was determined using a 96-well microplate reader (Vantaa, Finland) at 570 nm. Under these conditions, the OD is directly proportional to each well's viable number of cells. The experiments were performed in triplicate across three different assays.

Vero mammalian cells = assay: Cytotoxicity (MTT) on Vero cells; assay type: cell-based; conditions: Chlorocebus sabaeus, 24 h
Procedure: Additionally, the cytotoxicity of the compounds on VERO mammalian cells was assessed (Table 4). […] It is observed that the majority of the derivatives present considerable cytotoxicity. […] RPMI 1640 medium) for 24 h. […] The effects of the compounds on trypomastigote and Vero cell viability were evaluated by tetrazolium salt reduction assay (MTT). […] The plates were kept overnight at 37 °C (28 °C for epimastigotes), and the optical density (OD) was determined using a 96-well microplate reader (Vantaa, Finland) at 570 nm. Under these conditions, the OD is directly proportional to each well’s viable number of cells. The experiments were performed in triplicate across three different assays.

[2] = Cyclic voltammetry (reduction of the nitro group); assay type: physicochemical; set-up: key to −EpcI / −EpcII / −EpaII / −EpaI: potentials in V vs Ag/AgCl; |ΔEp|: unit not given here
Text: The chemistry mechanism of reduction in nitroisoxazole derivatives was investigated using cyclic voltammetry.
The peak near −1.32 V corresponds to a quasi-reversible one-electron transfer, according to the criteria of Nicholson–Shain [26] (Table 1), attributable to the species −NO2/NO2.− . The latter species stable anion radical at room temperature. […] An irreversible peak at −0.93 V to the mono-electronic transfer −HNO2/HNO2.− is observed, coupled with a chemical reaction associated with […] of the formed radical. This was evidenced by the addition of NaOH (1 M), which caused a decrease in the Ic peak (Figure 2c).
As previously described, an irreversible signal assigned to hydroxylamine oxidation to a nitroso derivative is also observed for N-acylhydrazones organometallic compounds with a pendant 5-nitrofuryl group. […] Compound 7, which has the least negative reduction potential, can be attributed to introducing a nitro group in the para position of the nitroisoxazole ring. This effect can also be observed in derivatives containing halogens in the same position.
Electrochemical characterization of the new compounds was performed through cyclic voltammetry (CV) on a 693 VA Metrohm instrument (Tokyo, Japan) equipped with a 694 VA Stand converter and 693 VA processor. Potentials were recorded against the Ag/AgCl reference electrode; a hanging drop of mercury (HDME) was used as a working electrode, and platinum was used as an auxiliary electrode. Tetrabutylammonium perchlorate (TBAP, 0.1 M) in DMSO was used as a supporting electrolyte under an N2 atmosphere at room temperature. Using Nicholson´s procedure, the Ipa/Ipc values (RNO2/RNO2^−) were measured from each cyclic voltammogram with a scan rate between 0.1 and 2.5 V/s.

T. cruzi trypomastigotes = assay: Generation of ROS (DCFH2-DA fluorescent probe); assay type: cell-based, Trypanosoma cruzi; conditions: 100 µM, 40 min, vs control without compound
Procedure: To generate radical species on T. cruzi trypomastigotes, intracellular free radicals were determined using the fluorescent probe dichlorofluorescein (DCF).
The cultures were incubated with a 20 µM DCFH2-DA solution for 15 min at 28 °C. Then, they were centrifuged at 3500 rpm and washed 2 times with phosphate buffer saline (PBS) pH 7.4. Cells loaded with DCFH2-DA were transferred to a Nunc® fluorescence 96-well plate (Thermo Fisher Scientific Inc., Waltham, MA, USA), where the nitroisoxazoles derivates were added at 100 µM. Fluorescence (exi: 488 nm, emi: 528 nm) was recorded for 40 min in a BioTek (Winooski, VT, USA) Synergy HT spectrofluorometer. The area under increase curves over time was determined using Oring 8 software, with areas normalized to control. Results are the means ± SD of three independent experiments.

[3] = tested on: epimastigote of T. cruzi Dm28; assay: Trypanocidal activity (MTT) on epimastigotes; assay type: cell-based; conditions: Trypanosoma cruzi; for killing at 100 µM: 24 h, n.a = not active, read-out: % T. cruzi Epimastigote (trypanocidal effect); for IC50: T. cruzi Dm28, 24 h, read-out: IC50 T. cruzi E (epimastigote)
Procedure: As a preliminary step, a study of nitroisoxazole derivatives on the epimastigote form of T. cruzi was performed. Despite the epimastigote form not being a clinical form present in mammals, its easy handling has allowed screening for the trypanocidal activity of various compounds. It is worth noting that, during the intracellular life cycle of the parasite, a form similar to the epimastigote, which is biochemically and morphologically identical to the form present in the vector, has been described. […] RPMI 1640 medium) for 24 h. […] The effects of the compounds on trypomastigote and Vero cell viability were evaluated by tetrazolium salt reduction assay (MTT). […] The plates were kept overnight at 37 °C (28 °C for epimastigotes), and the optical density (OD) was determined using a 96-well microplate reader (Vantaa, Finland) at 570 nm. Under these conditions, the OD is directly proportional to each well’s viable number of cells. The experiments were performed in triplicate across three different assays.

[4] = ORAC-FL antioxidant capacity; conditions: relative to Trolox; phosphate buffer 75 mM, pH 7.4, 37 °C
Procedure: To corroborate the generation of the nitro radical, the antioxidant capacity of the series under study was determined by ORAC-FL methodology, employing a fluorescent probe to capture oxygen-centered radicals (Table 2). The ORAC-FL values of the studied compounds are close to the reference value of Trolox, indicating a low antioxidant capacity. For compounds (1-3), the presence of amino substituents decreases antioxidant activity due to their […] characteristics, preventing the presence of labile hydrogens. […] Compounds 4 and 10 present similar ORAC indexes as aromatic rings with high electron density insert the transfer of labile protons. Antioxidant capacity was determined using the ORAC-fluorescence methodology (ORAC-FL). The analysis used a 96-well white polystyrene plate reader (EnSpire multimode PerkinElmer, Waltham, MA, USA). The reaction was carried out in phosphate buffer (75 mM, pH 7.4). […] A blank with FL and AAPH, using dimethyl sulfoxide instead of the antioxidant solution, was used in each assay. […] The inhibitor capacity was expressed as ORAC-FL values and quantified by integrating the area under the curve (AUCNET). All reaction mixtures were prepared in triplicate, and at least three independent assays were performed for each sample. The area under the fluorescence decay curve (AUC) was calculated by integrating the fluorescence decay where F0 is the initial fluorescence read at 0 min, and F is the fluorescence read at the time. The AUCNET corresponding to the sample was calculated by subtracting the AUC corresponding to the blank. Data were processed using Origin […].5 SR2 (San Francisco, CA, USA). The ORAC-FL indices were calculated according to the following Equation (1): (1) ORAC-[…]]

[5] = cyclic voltammetry at 2.0 V/s, DMSO, 0.1 M TBAP, vs Ag/AgCl

Compound	−EpcI [2, 5]	−EpcII [2, 5]	melting point	Ipa/Ipc ([2]; cyclic voltammetry at 2.0 V/s)	|ΔEp| ([2]; cyclic voltammetry at 2.0 V/s)	−EpaII [2, 5]	−EpaI [2, 5]	IIIc couple potential (formation of a hydroxylamine derivative) ([2]; cyclic voltammogram, Figure 2d) [V]	irreversible peak potential, mono-electronic transfer −HNO2/HNO2.− ([2]; cyclic voltammogram, Figure 2b) [V]	killing at 100 µM [1] [%]	IC50 [1] [µM]	IC50 (Vero mammalian cells) [µM]	ROS generation (DCF fluorescence intensity) (T. cruzi trypomastigotes)	killing at 100 µM [3] [%]	IC50 [3] [µM]	ORAC-FL Index [4]
Cc1noc(/C=C/N2CCCCC2)c1[N+](=O)[O-] [Compound 3, (E)-3-Methyl-4-nitro-5-(2-(piperidin-1-yl)vinyl)isoxazole]		1.29	151 to 153 °C	−0.19	100	1.19				20 ± 2	> 400	> 400	increase in fluorescence intensity	17 ± 5	> 400	0.52 ± 0.05
CCN(CC)c1ccc2cc(/C=C/c3onc(C)c3[N+](=O)[O-])c(=O)oc2c1 [Compound 11, (E)-7-(Diethylamino)-3-(2-(3-methyl-4-nitroisoxazol-5-yl)vinyl)-2H-chromen-2-one]	0.79	1.21	224 to 226 °C							10 ± 4	400 ± 5	125.9 ± 0.1	increase in fluorescence intensity		> 400	0.21 ± 0.01
COc1cc(/C=C/c2onc(C)c2[N+](=O)[O-])ccc1O [Compound 9, (E)-2-Methoxy-4-(2-(3-methyl-4-nitroisoxazol-5-yl)vinyl)phenol]	0.66	0.91	189 to 191 °C	−0.17	160	1.07	0.82	−1.14		15 ± 3	400 ± 2	244.5 ± 0.5	did not show ROS generation	52 ± 4	166 ± 4	0.7 ± 0.2
Cc1noc(/C=C/c2ccc(O)c(O)c2)c1[N+](=O)[O-] [Compound 8, (E)-4-(2-(3-Methyl-4-nitroisoxazol-5-yl)vinyl)benzene-1,2-diol]	0.93	1.17	270 °C (dec.)	−0.34	150	1.02			−0.93	16 ± 2	> 400	398.1 ± 0.3	did not show ROS generation	32 ± 5	> 400	1.0 ± 0.1

More lines, main results first:

−EpcI [2, 5]	−EpcII [2, 5]	melting point	Ipa/Ipc ([2]; cyclic voltammetry at 2.0 V/s)	|ΔEp| ([2]; cyclic voltammetry at 2.0 V/s)	−EpaII [2, 5]	−EpaI [2, 5]	IIIc couple potential (formation of a hydroxylamine derivative) ([2]; cyclic voltammogram, Figure 2d) [V]	irreversible peak potential, mono-electronic transfer −HNO2/HNO2.− ([2]; cyclic voltammogram, Figure 2b) [V]	Compound	killing at 100 µM [1] [%]	IC50 [1] [µM]	IC50 (Vero mammalian cells) [µM]	ROS generation (DCF fluorescence intensity) (T. cruzi trypomastigotes)	killing at 100 µM [3] [%]	IC50 [3] [µM]	ORAC-FL Index [4]
0.78	1.41	174 to 177 °C							Cc1noc(/C=C/c2cccc(Br)c2)c1[N+](=O)[O-] [Compound 16, (E)-5-(3-Bromostyryl)-3-methyl-4-nitroisoxazole]	22 ± 6	> 400	141 ± 4	did not show ROS generation	19 ± 3	> 400	0.54 ± 0.07
0.81	1.53	195 to 198 °C							Cc1noc(/C=C/c2ccc(Br)cc2)c1[N+](=O)[O-] [Compound 17, (E)-5-(4-Bromostyryl)-3-methyl-4-nitroisoxazole]	15 ± 5	> 400	> 400	did not show ROS generation	27 ± 1	> 400	0.4 ± 0.2
0.75	0.99	217 to 220 °C	−0.41	90	0.90				Cc1noc(/C=C/c2cn(-c3ccc(Cl)cc3)c3ccccc23)c1[N+](=O)[O-] [Compound 13, (E)-5-(2-(1-(4-Chlorophenyl)-1H-indol-3-yl)vinyl)-3-methyl-4-nitroisoxazole]	14 ± 3	> 400	102 ± 6	did not show ROS generation		> 400	0.4 ± 0.1
	0.96	196 to 199 °C	−0.36	90	0.87				Cc1noc(/C=C/c2cn(-c3ccccc3)c3ccccc23)c1[N+](=O)[O-] [Compound 12, (E)-3-Methyl-4-nitro-5-(2-(1-phenyl-1H-indol-3-yl)vinyl)isoxazole]	16 ± 2	> 400	141 ± 6	did not show ROS generation	5 ± 2	> 400	0.4 ± 0.1
